The text below walks through data of patent US9790198B2, “Substituted benzothiophenyl derivatives as GPR40 agonists for the treatment of type II diabetes” (Janssen Pharmaceutica NV, priority 2014, dated 2017).

The assay has as its target human GPR40 (Homo sapiens (Human), UniProt O14842). The assay is described as follows: GPR40 Calcium Flux Assay. The assay is classed as cell-based. Conditions: transfected HEK293 cells stably expressing human GPR40, mean data, read-out: hGPR40 Ca^2+ Assay EC50. As for the experimental part: Compounds were tested in a calcium flux assay using transfected HEK293 cells stably expressing either human GPR40 or rat GPR40. Human GPR40 expressing cells were cultured in DMEM-High Glucose media supplemented with 10% fetal bovine serum, 1×L-Glutamine, 1× Penicillin/Streptomycin and 500 μg/mL G418. Rat GPR40 expressing cells were cultured in DMEM-High Glucose media supplemented with 10% fetal bovine serum and 1 μg/mL puromycin. Cells were plated into poly-D-lysine coated 384-well plates and cultured overnight in a 37° C. humidified tissue culture incubator under 5% CO2/90% O2 atmosphere. On the day of the experiment, the culture media was replaced with assay buffer (HBSS, 20 mM HEPES, 0.1% BSA) and the cells incubated at 37° C. for 1 h. Calcium-sensitive fluorescent dye (Fluo 8 No-Wash Calcium Dye, ABD Bioquest) was then added and the cells incubated for another 30 min at 37° C. followed by 15 min at room temperature while protected from the light. The cell plate and a plate of diluted compounds of Formula (I) were loaded into a fluorescent plate reader that added compounds onto the cells while measuring the fluorescence intensity of each well. The plate reader recorded fluorescence intensity at 1 second intervals for 8 min and provided the data for analysis in an Excel format. EC50 values were calculated using Prism (GraphPad) software.

Sequence of human GPR40 (O14842 whole entry): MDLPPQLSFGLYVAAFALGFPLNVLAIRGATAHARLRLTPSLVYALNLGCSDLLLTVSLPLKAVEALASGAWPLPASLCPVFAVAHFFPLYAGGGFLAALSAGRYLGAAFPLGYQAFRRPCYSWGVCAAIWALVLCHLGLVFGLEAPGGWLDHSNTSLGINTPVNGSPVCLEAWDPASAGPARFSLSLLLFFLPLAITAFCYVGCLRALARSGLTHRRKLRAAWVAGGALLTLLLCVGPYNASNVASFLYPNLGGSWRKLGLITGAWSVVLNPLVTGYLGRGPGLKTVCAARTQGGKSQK

Turning to `Cc1ccccc1-c1csc2ccc(COc3ccc([C@]4(CC(=O)O)C[C@@H](O)C4)cc3)cc12` [Cpd 31, 2-((1r,3r)-3-Hydroxy-1-(4-((3-(2-methylphenyl)benzo[b]thiophen-5-yl)methoxy)phenyl)cyclobutyl)acetic acid], the 50% effective concentration (EC50) (usually the concentration at which the effect is half-maximal) came out at 14 nM.
